# Data published in paper PMC12030497, “Plasma Protein Binding, Biostability, Metabolite Profiling, and CYP450 Phenotype of TPB15 Across Different Species: A Novel Smoothened Inhibitor for TNBC Therapy” (Pharmaceutics, 2025).
# Columns and labels:
# [1] = Plasma protein binding by ultrafiltration, rat plasma; format: in vitro ADME, SD rat
# Protocol: (§1) To prepare plasma samples of TPB15 at final concentrations of 4, 8, and 16 μg/mL, 1 μL of TPB15 dissolved in dimethyl sulfoxide (DMSO) at low (400 μg/mL), medium (800 μg/mL), and high (1600 μg/mL) concentrations was added to 99 μL of blank plasma obtained from humans, rats, mice, monkeys, and dogs. Each concentration was prepared in six replicates. The samples were then divided into two groups: one for determining the pre-ultrafiltration concentration (Cpre) and the other for measuring the post-ultrafiltration concentration (Ct), following the evaluation of the non-specific binding coefficient (NSB) of TPB15 to the ultrafiltration tubes. For Cpre determination, 10 μL of the sample was mixed with 990 μL of plasma, vortexed thoroughly, and analyzed for drug concentration using the previously reported liquid chromatography–tandem mass spectrometry (LC-MS/MS) method. For Ct determination, the samples were first incubated in a water bath at 37 °C for 3 h. After incubation, they were transferred to ultrafiltration tubes and centrifuged at 14,000 rpm for 20 min at 4 °C using a centrifuge (Sigma 3K-15) from Sigma Laborzentrifugen GmbH (Osterode am Harz, Germany). After centrifugation, 10 μL of the ultrafiltrate was mixed with 990 μL of plasma, vortexed, and analyzed for concentration using the same LC-MS/MS method. The formula for calculating the plasma protein binding rate (PPB) is as follows: PPB (%) = [1 − Ct/(1 − NSB)/Cpre] × 100%. (NSB: non-specific binding coefficient. Cpre: post-ultrafiltration concentration. Ct: pre-ultrafiltration concentration).
# [2] = Plasma protein binding, overall across the five species; format: in vitro ADME, mice, rats, dogs, monkeys, humans; settings: monkey, human, all species tested, low, medium and high concentrations (4 to 16 μg/mL), read-out: plasma protein binding rate, overall
# Protocol: as §1, with “The formula for calculating the plasma protein binding rate (PPB) is as follows: PPB (%) = [1 − Ct/(1 − NSB)/Cpre] × 100%. (NSB: non-specific binding coefficient. Cpre: post-ultrafiltration concentration. Ct: pre-ultrafiltration concentration).” left out
# [3] = test system: CYP450 enzymes in human liver microsomes; assay: Metabolic enzyme phenotype of TPB15 in human liver microsomes with selective CYP450 inhibitors; format: in vitro ADME
# Protocol: The specific procedure was as follows: a total of 0.5 μL of the substrate TPB15 and 0.5 μL of each specific inhibitor were mixed with 449 μL of human liver microsomes, and the mixture was incubated at 37 °C for 10 min. Subsequently, 50 μL of NADPH with a concentration of 10 mM in PBS were introduced to initiate the reaction. After 90 min, 50 μL of the reaction mixture were transferred to a 150 μL ice-cold methanol solution containing an internal standard to terminate the reaction. The mixture was vortexed for 2 min and then centrifuged at 4 °C at 14,800 rpm for 10 min. A volume of 130 μL of the supernatant was then transferred to a new EP tube, which was centrifuged again at 4 °C at 14,800 rpm for another 10 min. Finally, 5 μL of the supernatant were injected for the determination of substrate TPB15 concentration. Three parallel samples were prepared for each time point. The experiment also included a positive control group and a negative control group. In the positive control group, substrate TPB15 was incubated with human liver microsomes for 90 min without the addition of inhibitors. In the negative control group, the substrate TPB15 was incubated for 90 min without inhibitors, with human liver microsomes replaced by an equal volume of phosphate-buffered saline (PBS). The metabolic rate of TPB15 in human liver microsomes was represented by the elimination rate of the substrate TPB15.
# Stability in dog plasma = format: in vitro ADME, beagle dog; settings: 37 °C, 453 μg/L
# Protocol: (§2) A total of 696.5 μL of plasma from each species (healthy mice, rat, dog, monkey, and human) were spiked with 3.5 μL of TPB15 stock solution ([…] in DMSO), resulting in a final TPB15 concentration of 453 μg/L in plasma. The mixture was then aliquoted into three tubes, each with a volume of 200 μL, maintaining a final DMSO concentration of 0.5%. After incubation in a water bath at 37 °C for 0, 30, 60, 90, and 120 min, 100 µL samples were transferred into EP tubes. Subsequently, 10 µL of internal standard working solution were added, followed by vortex mixing. Then, 500 µL of ethyl acetate were added, and the mixture was vortexed again before being centrifuged at 14,800 rpm at 4 °C for 10 min. A total of 400 µL of the supernatant were transferred into a new EP tube and placed in a vacuum concentrator (Bionoon-VAC2) (Bionoon Biotech, Shanghai, China) to dry for 1 h. The dried residue was reconstituted with 100 µL of mobile phase, vortex mixed thoroughly, and centrifuged again at 14,800 rpm at 4 °C for 10 min. A volume of 5 µL of the supernatant was then taken for LC-MS/MS analysis to determine the drug concentration. Additionally, a blank control group was established, in which PBS buffer was used in place of blank plasma in the incubation system.
# mouse plasma protein = assay: Plasma protein binding by ultrafiltration, mouse plasma; format: in vitro ADME, KM mice; settings: 37 °C 3 h
# Protocol: as §1
# [4] = as above; format: in vitro ADME, KM mice; settings: KM; mouse plasma, 4 to 16 μg/mL; read-out: average plasma protein binding rates, range over concentrations
# Protocol: as §1
# Stability in mice plasma = format: in vitro ADME, KM mice; settings: 37 °C, 453 μg/L
# Protocol: as §2
# MDA-MB-468 xenograft = test system: MDA-MB-468 xenograft; parameters: method as in PMID 32690258; settings: MDA-MB-468 xenograft nude mouse model, compared with positive control drug Vismodegib; cited from earlier work
# [5] = parameters: method as in PMID 39158678; settings: pharmacokinetic studies in rats; cited from earlier work
# mice = test system: mice; parameters: method as in PMID 32690258; settings: acute toxicity; cited from earlier work
# [6] = Stability in monkey plasma; format: in vitro ADME, cynomolgus monkey; settings: 37 °C, 453 μg/L
# Protocol: as §2
structure (smiles),measurement,setting,value
O=C(Nc1ccc(Cl)c(-c2nnc3c(Cl)cccn23)c1)c1ccc(Cl)nc1Cl [TPB15],fraction unbound at 3 h,"[1]; SD, rat plasma, 4 to 16 μg/mL, read-out: average plasma protein binding rates, range over concentrations",0.176 to 0.191
same,"fraction unbound at 3 h, 4 μg/mL","[1]; Sprague-Dawley, rat, plasma, 4 μg/mL TPB15, ultrafiltration, 37 °C 3 h, read-out: Plasma Protein Binding (%) SD Rat (converted)",0.183
same,"fraction unbound at 3 h, 8 μg/mL","[1]; Sprague-Dawley, rat, plasma, 8 μg/mL TPB15, ultrafiltration, 37 °C 3 h, read-out: Plasma Protein Binding (%) SD Rat (converted)",0.191
same,"fraction unbound at 3 h, 16 μg/mL","[1]; Sprague-Dawley, rat, plasma, 16 μg/mL TPB15, ultrafiltration, 37 °C 3 h, read-out: Plasma Protein Binding (%) SD Rat (converted)",0.176
same,fraction unbound at 3 h,"[2]; SD (rat), KM (mouse), beagle (dog)",0.176 to 0.191
same,fraction unbound at 3 h,"[2]; mouse, rat, dog",0.176 to 0.185
same,primary metabolic enzymes involved in TPB15 metabolism,[3],CYP2C9 and CYP3A4
same,Remaining proportion of substrate TPB15 (%) Beagle dog,Stability in dog plasma; incubation 0 min,100.0 ± 1.1%
same,Remaining proportion of substrate TPB15 (%) Beagle dog,Stability in dog plasma; incubation 30 min,99.3 ± 0.7%
same,Remaining proportion of substrate TPB15 (%) Beagle dog,Stability in dog plasma; incubation 60 min,98.9 ± 0.4%
same,Remaining proportion of substrate TPB15 (%) Beagle dog,Stability in dog plasma; incubation 90 min,97.1 ± 1.4%
same,Remaining proportion of substrate TPB15 (%) Beagle dog,Stability in dog plasma; incubation 120 min,98.0 ± 0.8%
same,Plasma Protein Binding (%) KM Mice,"mouse plasma protein; 4 μg/mL TPB15, ultrafiltration",81.80 ± 0.10%
same,Plasma Protein Binding (%) KM Mice,"mouse plasma protein; 8 μg/mL TPB15, ultrafiltration",81.21 ± 0.34%
same,Plasma Protein Binding (%) KM Mice,"mouse plasma protein; 16 μg/mL TPB15, ultrafiltration",82.40 ± 0.42%
same,fraction unbound at 3 h,[4],0.176 to 0.188
same,Remaining proportion of substrate TPB15 (%) KM mice,Stability in mice plasma; incubation 0 min,100.0 ± 0.7%
same,Remaining proportion of substrate TPB15 (%) KM mice,Stability in mice plasma; incubation 30 min,98.6 ± 0.9%
same,Remaining proportion of substrate TPB15 (%) KM mice,Stability in mice plasma; incubation 60 min,98.0 ±1.5%
same,Remaining proportion of substrate TPB15 (%) KM mice,Stability in mice plasma; incubation 90 min,97.1 ± 0.7%
same,Remaining proportion of substrate TPB15 (%) KM mice,Stability in mice plasma; incubation 120 min,98.0 ± 1.2%
same,tumor inhibitory effect,MDA-MB-468 xenograft,"robust tumor inhibitory effect, surpassing that of the positive control drug Vismodegib"
same,half-life in rats,[5],relatively long half-life
same,lethal dose for 50% of the population (LD50),mice,3875.35 mg/kg
same,Remaining proportion of substrate TPB15 (%) Cynomolgus monkey,[6]; incubation 0 min,100.0 ± 1.7%
same,Remaining proportion of substrate TPB15 (%) Cynomolgus monkey,[6]; incubation 30 min,98.2 ± 0.6%
same,Remaining proportion of substrate TPB15 (%) Cynomolgus monkey,[6]; incubation 60 min,96.3 ± 1.2%
same,Remaining proportion of substrate TPB15 (%) Cynomolgus monkey,[6]; incubation 90 min,99.3 ± 0.9%
same,Remaining proportion of substrate TPB15 (%) Cynomolgus monkey,[6]; incubation 120 min,98.3 ± 1.5%
